This is an account of results in ChEMBL document CHEMBL1134095, “Biaryl ether retrohydroxamates as potent, long-lived, orally bioavailable MMP inhibitors” (Bioorg Med Chem Lett, 2001).

Data set [1] is described as follows: Area under curve determined after peroral administration at a dose of 10 mg/kg in cynomolgus monkey. It counts as ADME, organism-based, Macaca fascicularis. Also on record: dose 10 mg/kg, route oral. As to conditions: in vivo, po.
A short description of data set [2]: Area under curve determined after intravenous administration at a dose of 3 mg/kg in cynomolgus monkey. It counts as ADME, organism-based, Macaca fascicularis. The arrangement: dose 3 mg/kg, route intravenous. As to conditions: in vivo.
Data set [3] is described as follows: Oral bioavailability in cynomolgus monkey. It counts as ADME, organism-based, Macaca fascicularis. As to conditions: in vivo.
Data set [4] is described as follows: Half life determined after intravenous administration at a dose of 3 mg/kg in cynomolgus monkey. It counts as ADME, organism-based, Macaca fascicularis. The arrangement: dose 3 mg/kg, route intravenous. As to conditions: in vivo.
Data set [5] has as its target Stromelysin-1 (Homo sapiens, UniProt P08254). Briefly: In vitro inhibition of Matrix metalloprotease-3.
For data set [6], the target named is 72 kDa type IV collagenase (Homo sapiens, UniProt P08253). Put plainly: In vitro inhibition of Matrix metalloprotease-2.
Sequence of 72 kDa type IV collagenase (P08253 whole entry): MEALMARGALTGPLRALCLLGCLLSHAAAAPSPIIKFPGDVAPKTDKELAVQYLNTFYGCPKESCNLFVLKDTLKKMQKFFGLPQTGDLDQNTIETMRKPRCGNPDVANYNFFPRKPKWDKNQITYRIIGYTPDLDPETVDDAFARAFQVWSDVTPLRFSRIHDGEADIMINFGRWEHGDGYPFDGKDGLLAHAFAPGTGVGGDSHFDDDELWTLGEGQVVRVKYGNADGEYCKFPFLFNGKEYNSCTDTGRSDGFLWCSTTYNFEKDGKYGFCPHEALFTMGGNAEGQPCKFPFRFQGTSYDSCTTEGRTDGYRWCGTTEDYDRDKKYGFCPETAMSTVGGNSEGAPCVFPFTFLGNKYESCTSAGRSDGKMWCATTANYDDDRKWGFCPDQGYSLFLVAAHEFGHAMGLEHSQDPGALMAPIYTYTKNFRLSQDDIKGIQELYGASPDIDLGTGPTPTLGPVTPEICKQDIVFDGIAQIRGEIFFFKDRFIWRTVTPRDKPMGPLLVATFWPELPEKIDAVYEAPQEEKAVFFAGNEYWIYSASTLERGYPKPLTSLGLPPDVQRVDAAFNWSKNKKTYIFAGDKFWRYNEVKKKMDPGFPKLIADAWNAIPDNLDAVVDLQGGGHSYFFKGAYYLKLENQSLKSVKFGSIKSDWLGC
Data set [7] concerns the target T1, Interstitial collagenase (Homo sapiens, UniProt P03956).
T1 sequence (P03956 whole entry): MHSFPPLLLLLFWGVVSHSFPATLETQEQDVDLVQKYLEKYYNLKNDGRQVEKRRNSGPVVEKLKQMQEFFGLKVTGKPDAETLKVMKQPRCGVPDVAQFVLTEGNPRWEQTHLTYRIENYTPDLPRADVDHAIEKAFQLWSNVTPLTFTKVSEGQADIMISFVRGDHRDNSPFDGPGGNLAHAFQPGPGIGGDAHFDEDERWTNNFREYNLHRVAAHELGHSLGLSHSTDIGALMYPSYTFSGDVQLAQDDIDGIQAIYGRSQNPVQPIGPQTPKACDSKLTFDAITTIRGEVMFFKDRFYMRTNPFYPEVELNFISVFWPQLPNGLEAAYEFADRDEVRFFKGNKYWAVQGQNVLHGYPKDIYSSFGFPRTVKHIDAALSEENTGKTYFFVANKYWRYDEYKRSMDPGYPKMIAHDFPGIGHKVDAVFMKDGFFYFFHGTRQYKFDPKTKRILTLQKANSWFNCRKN
Briefly: In vitro inhibition of Matrix metalloprotease-1.

A short description of data set [8]: Area under curve determined after peroral administration at a dose of 3 mg/kg in cynomolgus monkey. It counts as ADME, organism-based, Macaca fascicularis. Also on record: dose 3 mg/kg, route oral. As to conditions: in vivo, po.
Data set [9] can be described thus: Half life after iv administration in cynomolgus monkey. It counts as ADME, organism-based, Macaca fascicularis. As to conditions: in vivo.
Data set [10] can be described thus: Half life determined in rat by intravenous administration. As to conditions: in vivo. It counts as ADME, organism-based.
Data set [11] is described as follows: Oral Bioavailability in rat. It counts as ADME, organism-based. As to conditions: in vivo.
Data set [12] in a line: Bioavailability determined after oral administration in marmoset. It counts as ADME, organism-based. As to conditions: callitrichinae sp., in vivo.

Sequence of Stromelysin-1 (P08254 whole entry): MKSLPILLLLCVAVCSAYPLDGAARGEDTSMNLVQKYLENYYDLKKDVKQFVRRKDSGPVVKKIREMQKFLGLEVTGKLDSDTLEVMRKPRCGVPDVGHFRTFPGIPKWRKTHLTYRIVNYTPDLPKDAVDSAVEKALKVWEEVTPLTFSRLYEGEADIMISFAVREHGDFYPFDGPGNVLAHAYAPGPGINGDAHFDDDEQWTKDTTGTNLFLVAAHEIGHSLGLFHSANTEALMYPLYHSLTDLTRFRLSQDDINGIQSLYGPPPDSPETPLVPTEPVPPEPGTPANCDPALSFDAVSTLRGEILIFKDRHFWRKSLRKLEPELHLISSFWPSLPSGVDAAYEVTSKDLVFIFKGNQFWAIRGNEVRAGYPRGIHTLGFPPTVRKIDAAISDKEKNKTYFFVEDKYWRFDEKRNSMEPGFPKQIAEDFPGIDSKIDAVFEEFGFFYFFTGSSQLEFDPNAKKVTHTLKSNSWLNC

Consider `CN1C(=O)N(CC(COc2ccc(-c3ccc(C#N)cc3)cc2)N(O)C=O)C(=O)C1(C)C` (stereo unspecified), for which the AUC in [1] came out at 11.8 uM hr l-1; in [2] it was 15.2 uM hr l-1. Moreover, in [3], the bioavailability came to 23%. Also, the half-life in [4] was 2.5 h. In addition, the values for the IC50 in data set [5] and in [6] were 9.1 nM and 58000 nM, respectively.

For the compound `CC1(C)NC(=O)N(CCC(COc2ccc(-c3ccc(C#N)cc3)cc2)N(O)C=O)C1=O` (stereo unspecified), the results for the IC50 in [7], in data set [5] and in data set [6] were 14000 nM, 35 nM and 6900 nM, respectively. Also, the AUC in data set [2] was 47.5 uM hr l-1; in data set [8], 2.4 uM hr l-1. Moreover, the bioavailability in data set [3] was determined as 6%. In addition, the half-life in data set [4] is 12.7 h.

On to `CCN1C(=O)N(CC(COc2ccc(-c3ccc(C#N)cc3)cc2)N(O)C=O)C(=O)C1(C)C` (stereo unspecified), for which the results for the IC50 in [7], in data set [5] and in data set [6] were 2400 nM, 27 nM and 12000 nM, respectively. The same compound showed an AUC in data set [2] of 12.3 uM hr l-1. Also, the half-life in data set [4] is 1.8 h.

For the compound `CC1(C)CC(=O)N(CC(COc2ccc(-c3ccc(C#N)cc3)cc2)N(O)C=O)C(=O)C1` (stereo unspecified), the results for the IC50 in data set [7], in data set [5] and in data set [6] were 360 nM, 37 nM and 25000 nM, respectively.

On to `N#Cc1ccc(-c2ccc(OCC(Cc3ccc(F)cc3)N(O)C=O)cc2)cc1` (stereo unspecified), for which the IC50 turned out to be 14000 nM in data set [7] and 180 nM in data set [5]. In data set [9], the half-life is under 1 h.

`N#Cc1ccc(-c2ccc(OCCC(=O)O)cc2)cc1`: the half-inhibitory concentration (IC50) in [5] was over 10 nM; in data set [6], 8000 nM.

Consider `CN1C(=O)N(CCC(COc2ccc(-c3ccc(C#N)cc3)cc2)N(O)C=O)C(=O)C1(C)C` (stereo unspecified), for which the IC50 is over 10000 nM in data set [7], 17 nM in data set [5] and 45000 nM in data set [6]. In addition, the results for the AUC in data set [1] and in data set [2] were 1.8 uM hr l-1 and 8 uM hr l-1, respectively. For the same compound, the bioavailability in [3] came out at 6%. In data set [4], this compound gave a half-life of 0.5 h.

For the compound `N#Cc1ccc(-c2ccc(OCCN(O)C=O)cc2)cc1`, the results for the IC50 in data set [7], in data set [5] and in [6] were over 50 nM, 0.062 nM and 400 nM, respectively.

Consider `N#Cc1ccc(-c2ccc(OCC(CN3C(=O)c4ccccc4C3=O)N(O)C=O)cc2)cc1` (stereo unspecified), for which the IC50 in data set [7] was over 10000 nM; in data set [5], 21 nM; in data set [6], 37000 nM. Further, in data set [4], the half-life is 0.3 h.

For the compound `N#Cc1ccc(-c2ccc(OCCC(=O)NO)cc2)cc1`, the IC50 in data set [7] was 3.3 nM; in data set [5], 0.057 nM; in data set [6], 32 nM.

With `N#Cc1ccc(-c2ccc(OCC(c3ccc(F)cc3)N(O)C=O)cc2)cc1` (stereo unspecified), the IC50 in [7] is over 10000 nM; in data set [5], 300 nM. The compound also came in with a half-life in data set [9] of under 1 h.

As for `N#Cc1ccc(-c2ccc(OCC(CSc3ccccc3)N(O)C=O)cc2)cc1` (stereo unspecified), the concentration for half-maximal inhibition (IC50) in data set [7] turned out to be 4100 nM; in [5], 36 nM. Moreover, the half-life in [9] was under 1 h; in data set [4] it was 0.3 h.

As for `CC(COc1ccc(-c2ccc(C#N)cc2)cc1)N(O)C=O` (stereo unspecified), the IC50 was over 10000 nM in data set [7], 620 nM in data set [5] and 76000 nM in data set [6]. Also, the half-life in data set [10] is 1.6 h. Moreover, in data set [11], the bioavailability was 33%.

On to `N#Cc1ccc(-c2ccc(OCC(CN3C(=O)CNC3=O)N(O)C=O)cc2)cc1` (stereo unspecified), for which the IC50 in [7] was found to be 2400 nM; in data set [5] it was 14 nM; in [6] it was 8200 nM. Besides, the AUC in data set [2] came to 59.8 uM hr l-1; in data set [8], 68 uM hr l-1. The bioavailability in [3] came to 100%. In addition, the half-life in data set [4] was 7.3 h.

In the case of `CC1(C)NC(=O)N(CC(COc2ccc(-c3ccc(C#N)cc3)cc2)N(O)C=O)C1=O` (stereo unspecified), the IC50 in data set [7] was 2100 nM; in [5], 24 nM; in [6] it was 7800 nM. Further, the bioavailability in data set [12] is 85%; in data set [3], 110%. The AUC in data set [2] was 24 uM hr l-1; in data set [8], 27.2 uM hr l-1. In data set [4], this compound showed a half-life of 7.7 h.

Turning to `N#Cc1ccc(-c2ccc(OCC(COc3ccccc3)N(O)C=O)cc2)cc1` (stereo unspecified), the figures for the IC50 in [7] and in data set [5] were over 10000 nM and 130 nM, respectively. This compound also yielded a half-life in data set [9] of under 1 h.

For `Cc1ccc(=O)n(CC(COc2ccc(-c3ccc(C#N)cc3)cc2)N(O)C=O)n1` (stereo unspecified), the values for the IC50 in data set [7], in data set [5] and in data set [6] were 4200 nM, 37 nM and 3400 nM, respectively. This compound had a half-life in [4] of 0.5 h.

In [6], `CC(=O)N(O)CCOc1ccc(-c2ccc(C#N)cc2)cc1` came in with an IC50 of 5900 nM.

For `CC(COc1ccc(-c2ccc(C#N)cc2)cc1)C(=O)NO` (stereo unspecified), the IC50 amounted to 2500 nM in data set [7], 45 nM in data set [5] and 19000 nM in [6]. In data set [10], this compound showed a half-life of 0.3 h. The bioavailability in data set [11] turned out to be 7%.

Take `N#Cc1ccc(-c2ccc(OCCNC(=O)NO)cc2)cc1`: the 50% inhibitory concentration (IC50) is over 50 nM in [7], 80 nM in [5] and over 100000 nM in [6].

In the case of `CC(C)CC(COc1ccc(-c2ccc(C#N)cc2)cc1)N(O)C=O` (stereo unspecified), the IC50 in data set [7] is over 10000 nM; in [5], 120 nM. In [9], this compound returned a half-life of under 1 h.

Regarding `N#Cc1ccc(-c2ccc(OCCN(O)C(N)=O)cc2)cc1`, the IC50 in data set [7] is over 50 nM; in [5], over 100 nM; in [6], 35000 nM.

On to `N#Cc1ccc(-c2ccc(OCC(CN3C(=O)CCC3=O)N(O)C=O)cc2)cc1` (stereo unspecified), for which the half-inhibitory concentration (IC50) was over 10000 nM in data set [7], 11 nM in data set [5] and 5200 nM in [6]. The compound also had a half-life in data set [4] of 0.6 h.
